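Cells were grown in 96-well plates and exposed to each compound for 48 hours at five concentrations; endpoints were interpolated linearly between bracketing concentrations, or set to the highest concentration if not reached. At the GI50, growth is halved.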 Active and inactive are the calls of the source. Rule as the data show it: active = GI50 up to about 1.1 µM and inactive = higher.

What all share (test): inhibition of tumour cell growth, NCI panel, 48 h
In assay [1] the test system is A549.
Assay [2] concerns ACHN.
Assay [3] deals with BT-549.
Assay [4] relates to CAKI-1.
Assay [5] deals with CCRF-CEM.
Assay [6] relates to EKVX.
The subject of assay [7] is HL-60.
In assay [8] the test system is HT-29.
Assay [9] deals with Hs-578T.
The subject of assay [10] is LOX IMVI.
In assay [11] the test system is M14.
Assay [12] deals with Malme-3M.
The test system of assay [13] is NCI-H23.
For assay [14], the system named is OVCAR-8.
For assay [15], the system named is RPMI-8226.
Assay [16] concerns SF-268.
Assay [17] concerns SK-MEL-2.
The subject of assay [18] is SK-MEL-5.
For assay [19], the system named is SN12C.
In assay [20] the test system is UACC-62.

With `O=C(O)c1ccccc1-c1ccccc1C(=O)Nc1ccc2c(c1)nc(O)c1ccccc12`, the GI50 was > 100 µM (inactive) in assay [1]; > 100 µM (inactive) in [2]; 52.4 µM (inactive) in assay [3]; > 100 µM (inactive) in assay [4]; 62.8 µM (inactive) in assay [5]; > 100 µM (inactive) in assay [6]. Also, the GI50 in assay [7] was 94.8 µM (inactive); in assay [8], > 100 µM (inactive); in assay [9], 98.4 µM (inactive); in assay [10] it was 48.9 µM (inactive); in assay [11] it was > 100 µM (inactive); in [12], > 100 µM (inactive). For the same compound, the GI50 in [13] was > 100 µM (inactive); in assay [14], > 100 µM (inactive); in assay [15], > 100 µM (inactive); in assay [16] it was > 100 µM (inactive); in assay [17], 87.9 µM (inactive); in assay [18] it was > 100 µM (inactive). For the same compound, the GI50 in assay [19] was > 100 µM (inactive); in [20], 59.6 µM (inactive).

Take `CC1OC(OC2C(O)C(O)C(O)C(O)C2O)C(N)CC1NC(=N)C(=O)O` (stereo not given): the GI50 in assay [1], in [2], in [3], in assay [4], in [5] and in assay [6] was > 100 µM (inactive) each time. The GI50 in [7], in assay [8], in assay [9], in [10], in assay [11] and in assay [12] was > 100 µM (inactive) each time. Besides, the GI50 in assay [13], in assay [14], in assay [15], in assay [16], in [17] and in assay [18] was > 100 µM (inactive) each time. Moreover, the GI50 in assay [19] and in assay [20] was > 100 µM (inactive) in each case.

Consider `N=C(N)/N=C(\N)Nc1ccc(C(=O)O)cc1`, for which the GI50 in [1], in [2], in assay [3], in [4], in assay [5] and in [6] was > 100 µM (inactive) each time. Also, the GI50 in assay [7], in [8], in assay [9], in [10], in assay [11] and in [12] was > 100 µM (inactive) each time. Moreover, the GI50 in assay [13], in assay [14], in assay [15], in assay [16], in [17] and in assay [18] was > 100 µM (inactive) each time. For the same compound, the GI50 in [19] is 43.1 µM (inactive); in assay [20], > 100 µM (inactive).

For the compound `COc1ccc(-n2c(N)c(C#N)c(C#N)c2-c2cccc([N+](=O)[O-])c2)cc1`, the GI50 in assay [1] is 1.53 µM (inactive); in [2], 91 µM (inactive); in assay [3], > 100 µM (inactive); in assay [4], > 100 µM (inactive); in assay [5] it was 5.31 µM (inactive); in assay [6], 26 µM (inactive). Besides, the GI50 in [7] was > 100 µM (inactive); in assay [8], 25.3 µM (inactive); in [9], 15.3 µM (inactive); in [10], 48.3 µM (inactive); in assay [11], > 100 µM (inactive); in assay [12], > 100 µM (inactive). The GI50 in assay [13] was > 100 µM (inactive); in assay [14] it was 88.9 µM (inactive); in [15], 5.37 µM (inactive); in [16] it was 51.9 µM (inactive); in assay [17], 1.77 µM (inactive); in assay [18], 22.9 µM (inactive). Also, the values for the GI50 in assay [19] and in assay [20] were > 100 µM (inactive) and 17.5 µM (inactive), respectively.

For `COc1cc(/C=N/NC(=O)c2ccc(NC(C)=O)cc2OC)ccc1O`, the GI50 in [1] is > 100 µM (inactive); in assay [2] it was 38.9 µM (inactive); in assay [3] it was > 100 µM (inactive); in [4], > 100 µM (inactive); in assay [5], > 100 µM (inactive); in assay [6], 77.6 µM (inactive). Also, the GI50 in assay [7] was > 100 µM (inactive); in assay [8], > 100 µM (inactive); in assay [9] it was 32.4 µM (inactive); in assay [10], 47.4 µM (inactive); in assay [11] it was > 100 µM (inactive); in [12] it was > 100 µM (inactive). Besides, the GI50 was 54.6 µM (inactive) in [13]; > 100 µM (inactive) in assay [14]; > 100 µM (inactive) in [15]; 34.2 µM (inactive) in [16]; 26.9 µM (inactive) in [17]; > 100 µM (inactive) in assay [18]. The GI50 in [19] is > 100 µM (inactive); in [20] it was 61.9 µM (inactive).

As to `CCC1(C)NC(c2cnccn2)=NN1c1ccc(Cl)cc1` (stereo not given), the GI50 in assay [1] is > 100 µM (inactive); in [2] it was > 100 µM (inactive); in assay [3], > 100 µM (inactive); in [4], > 100 µM (inactive); in [5], 18.7 µM (inactive); in assay [6], > 100 µM (inactive). Moreover, the GI50 in [7] is 48.8 µM (inactive); in assay [8], 88.1 µM (inactive); in assay [9], > 100 µM (inactive); in assay [10], 35.9 µM (inactive); in assay [11] it was > 100 µM (inactive); in [12] it was 41.9 µM (inactive). Also, the GI50 in assay [13] was > 100 µM (inactive); in assay [14], > 100 µM (inactive); in assay [15], 30 µM (inactive); in assay [16], > 100 µM (inactive); in assay [17] it was > 100 µM (inactive); in assay [18] it was > 100 µM (inactive). Moreover, the figures for the GI50 in [19] and in assay [20] were 29 µM (inactive) and > 100 µM (inactive), respectively.

On to `O=[N+]([O-])c1ccc(C2ON=C(c3ccccc3)N2C23CC4CC(CC(C4)C2)C3)cc1` (stereo not given), for which the GI50 in assay [1], in assay [2], in assay [3], in assay [4], in assay [5] and in assay [6] was > 10 µM (inactive) in each case. The GI50 in [7] was > 10 µM (inactive); in assay [8], > 10 µM (inactive); in [9] it was 6.75 µM (inactive); in [10], > 10 µM (inactive); in [11], > 10 µM (inactive); in [12], > 10 µM (inactive). In addition, the GI50 in [13], in assay [14], in assay [15], in assay [16], in [17] and in assay [18] was > 10 µM (inactive) throughout. In addition, the GI50 in assay [19] and in assay [20] was > 10 µM (inactive) each time.

As to `O=C(CCc1ccccc1)ON1C(=S)C(c2ccccc2)(c2ccccc2)N=C1Sc1ccccc1`, the GI50 in assay [1] is 38.1 µM (inactive); in assay [2], 48.1 µM (inactive); in assay [3], 54 µM (inactive); in [4], 74.1 µM (inactive); in assay [5], 20.3 µM (inactive); in assay [6] it was 26.6 µM (inactive). Moreover, the GI50 is 31.6 µM (inactive) in assay [7]; 24.5 µM (inactive) in [8]; 38.7 µM (inactive) in assay [9]; 5.52 µM (inactive) in assay [10]; 82.6 µM (inactive) in assay [11]; 48.1 µM (inactive) in assay [12]. For the same compound, the GI50 was 34.4 µM (inactive) in assay [13]; 38.7 µM (inactive) in [14]; 22 µM (inactive) in assay [15]; 22.7 µM (inactive) in assay [16]; 29.8 µM (inactive) in [17]; 37.5 µM (inactive) in assay [18]. The GI50 in [19] is 68.5 µM (inactive); in [20] it was 55.1 µM (inactive).

As to `Cc1nc2n(c1/C=C1/C(=O)Nc3ccccc31)CCS2`, the GI50 in assay [1] is 51.9 µM (inactive); in assay [2] it was 75.3 µM (inactive); in [3], 41.3 µM (inactive); in assay [4], 42.1 µM (inactive); in [5], 47.1 µM (inactive); in assay [6], 46.7 µM (inactive). In addition, the GI50 in assay [7] is 32.1 µM (inactive); in [8], 38.4 µM (inactive); in [9] it was 39.5 µM (inactive); in assay [10], 72.4 µM (inactive); in [11], 67.5 µM (inactive); in assay [12] it was 56 µM (inactive). In addition, the GI50 was 47 µM (inactive) in [13]; 79.6 µM (inactive) in [14]; 47.1 µM (inactive) in [15]; 81.8 µM (inactive) in assay [16]; 5.74 µM (inactive) in assay [17]; 31.5 µM (inactive) in assay [18]. Further, the GI50 is 56.1 µM (inactive) in assay [19] and 24.2 µM (inactive) in [20].

As for `CCCCCCCCCCCCCCCC(=O)OCC1OC(n2ccc(N)nc2=O)C(O)C1O` (stereo not given), the GI50 in [1] is 0.601 µM (active); in assay [2] it was 0.753 µM (active); in assay [3], > 100 µM (inactive); in assay [4] it was 5.36 µM (inactive); in assay [5], 0.0106 µM (active); in assay [6], > 69 µM (inactive). For the same compound, the GI50 in [7] is 0.59 µM (active); in assay [8], 35.2 µM (inactive); in assay [9], > 100 µM (inactive); in [10], 4.7 µM (inactive); in assay [11], 0.931 µM (active); in [12], 5.28 µM (inactive). Besides, the GI50 was 1.25 µM (inactive) in assay [13]; 2.39 µM (inactive) in assay [14]; > 87.9 µM (inactive) in [15]; 12.1 µM (inactive) in assay [16]; > 100 µM (inactive) in [17]; 18.5 µM (inactive) in [18]. In addition, the GI50 in [19] is 9.95 µM (inactive); in [20], 11.4 µM (inactive).

(Values after ChEMBL document CHEMBL1201862, “PubChem BioAssay data set” (2004).)
